Experimental data: patent US9738591B2, “Antimicrobial compounds” (priority 2009, dated 2017)
Values after ≈ are worked out from the molar mass of the structure shown.

What was measured:
[1] = tested on: Yersinia enterocolitica clinical 26609; experiment: Disk diffusion; details: 10 mg/ml, 20 μl; repeat, strain clinical 26609
S. xylosus ATCC 29971 = experiment: MIC and MBC by broth microdilution; format: cell-based; details: Staphylococcus xylosus, ATCC29971, CA-MHB, two independent replicates
Description: (§1) The method used was based on CLSI protocols for broth microdilution testing of these species. As recommended by CLSI, inocula were prepared by direct colony suspension, and the media used were cation-adjusted Mueller Hinton broth (CA-MHB) for Staphylococcus spp. and CA-MHB containing 5% lysed horse blood (CA-MHB+LHB) for Streptococcus spp. Briefly, 24 h blood agar plate (BA) cultures of Staphylococcus aureus strains NCTC 6571, ATCC 29213, ATCC 33592 (MRSA) and NCTC 10442 (MRSA), Staphylococcus epidermidis ATCC 29971, Staphylococcus xylosus ATCC 29971, Streptococcus pneumoniae strains ATCC 49619 and ATCC 6305, and Streptococcus pyogenes strains NCTC 8191 and NCTC 8302 were used to prepare 0.5 McFarland suspensions in saline. Two 640 μg/ml working stocks of TSB007 were prepared from a fresh master stock, one in CA-MHB for testing against the Staphylococcus spp. and the other in CA-MHB+LHB for testing against Streptococcus spp. The working stocks were further diluted 1/10 in these broths for adding to microtitre trays to test MICs of 32, 16, 8, 4, 2, 1, 0.5, 0.25, 0.125 and 0.06 μg/ml.
(§2) The wells of two 96-well microtitre trays (one for Staphylococcus spp. and one for Streptococcus spp.) were filled with 100 μl of the appropriate broth, except for the first column. The last column, a sterility control containing no TSB007 or inoculum, was filled with an additional 100 μl broth. Then 100 μl of the 64 μg/ml TSB007 solution was added to the first two columns, the contents of column 2 was mixed, then 100 μl of this was used in two-fold serial dilutions along the rest of the tray except the last two columns. The final 100 μl was discarded. […] Finally, to the first 11 wells of one row per strain, 100 μl of a 10^−2 dilution (in the appropriate broth) of the 0.5 McFarland suspension was added. The microtitre trays were then incubated at 35° C. for 24 h before the MICs were read visually. Wells were further subcultured (10 μl drop onto BA then incubated at 35° C. for 24 h) and colonies subsequently counted to determine minimum bactericidal concentrations (MBCs). The concentration of the initial inoculum was confirmed on BA by counting colonies from 2×10 μl spots of 10^−5 dilutions of the 0.5 McFarland suspensions. Testing was performed on two separate occasions.

S. aureus ATCC 29213 = experiment: MIC and MBC by broth microdilution; format: cell-based; details: Staphylococcus aureus, ATCC29213, CA-MHB, two independent replicates
Description: as §1, §2

S. pneumoniae ATCC 6305 = experiment: MIC and MBC by broth microdilution; format: cell-based; details: Streptococcus pneumoniae, ATCC6305, CA-MHB+LHB, two independent replicates
Description: as §1, §2

S. aureus NCTC 6571 [2] = experiment: MIC and MBC by broth microdilution; format: cell-based; details: Staphylococcus aureus, NCTC6571, CA-MHB, two independent replicates
Description: as §1, §2

S. pneumoniae ATCC 49619 = experiment: MIC and MBC by broth microdilution; format: cell-based; details: Streptococcus pneumoniae, ATCC49619, CA-MHB+LHB, two independent replicates
Description: as §1, §2

[3] = tested on: Aeromonas hydrophila NCTC 8049/ATCC 7966; experiment: Disk diffusion; details: 10 mg/ml, 20 μl; repeat
[4] = tested on: Streptococcus pyogenes NCTC 8191; experiment: Disk diffusion; details: 10 mg/ml, 20 μl
[5] = tested on: Yersinia enterocolitica ATCC 9610; experiment: Disk diffusion; format: cell-based; details: 10 mg/ml, 20 μl
[6] = tested on: Bacillus cereus ATCC 13061; experiment: Disk diffusion; details: 10 mg/ml, 20 μl
[7] = tested on: Moraxella catarrhalis NCTC 3625; experiment: Disk diffusion; details: 10 mg/ml, 20 μl; repeat, strain NCTC 3625
S. aureus NCTC 6571 [8] = experiment: Time-kill experiments; format: cell-based; details: for effect on viability over the 4 h of the experiment: MHB, 37° C.; for effect on viability over the 4 h of the experiment / viable counts at 24 h: initial 0.5-1.0×10^7 CFU/ml
Description: An overnight 10 ml MHB culture of S. aureus NCTC 6571 was diluted to 0.5 McFarland in MHB then 1 ml was used to inoculate each of four 100 ml flasks prepared as follows: • 1) 9.0 ml MHB (control) • 2) 9.99 ml MHB plus 9.7 μl of TSB007 working stock at 2048 μg/ml (1.8 μg/ml) • 3) 9.98 ml MHB plus 19.5 μl of TSB007 working stock at 2048 μg/ml (3.6 μg/ml) • 4) […] MHB plus 256 μl of a TSB007 master stock (320 μg/ml).
The flasks were incubated at 37° C. for 10 min before inoculation. Samples (0.1 ml) were taken immediately after inoculation (time 0) and then at 15, 30, 60, 120 and 240 min. The samples were immediately diluted 10^−1 in 0.01 M phosphate buffered saline at pH 7.0 (PBS). Further 10-fold dilutions in PBS were made down to 10^−4 until the 60 min time point, and then down to 10^−6 for the remaining time points. Viable counts were estimated using 3×20 μl drops from each dilution on MHA which was then incubated at 37° C. overnight before counting. These were normalised against the initial counts from each flask. Testing was performed on three separated occasions.

[9] = tested on: Streptococcus pneumoniae strain 12213; experiment: Disk diffusion; format: cell-based; details: 10 mg/ml, 20 μl
[10] = tested on: Citrobacter freundii NCTC 9750/ATCC 8090; experiment: Disk diffusion; details: 10 mg/ml, 20 μl; repeat

## O=C(O)c1ccc(/C=C/c2cc(/C=C/c3ccc(C(=O)O)cc3)cc(/C=C/c3ccc(C(=O)O)cc3)c2)cc1 [TSB007]
[1]
  Zone diameters, Repeat Results: 8 trim
S. xylosus ATCC 29971; 35° C., 24 h
  MIC: 8 to 16 µg/mL (≈ 15.5 to 31 µM)
S. xylosus ATCC 29971
  MBC: 8 to 16 µg/mL (≈ 15.5 to 31 µM)
S. aureus ATCC 29213; 35° C., 24 h
  MIC: 4 µg/mL (≈ 7.74 µM)
S. aureus ATCC 29213
  MBC: > 32 µg/mL
S. pneumoniae ATCC 6305; 35° C., 24 h
  MIC: > 32 µg/mL
S. pneumoniae ATCC 6305
  MBC: > 32 µg/mL
S. aureus NCTC 6571 [2]; 35° C., 24 h
  MIC: 2 to 4 µg/mL (≈ 3.87 to 7.74 µM)
S. aureus NCTC 6571 [2]
  MBC: > 32 µg/mL
S. pneumoniae ATCC 49619; 35° C., 24 h
  MIC: 32 µg/mL (≈ 61.9 µM)
S. pneumoniae ATCC 49619
  MBC: > 32 µg/mL
[3]
  Zone diameters, Repeat Results: 8 trim
[4]; 24 h, Mueller Hinton + Blood & Incubated in 5% CO2
  Zone diameters, 24 h TSB007: 14 trim
[4]; 48 h, Mueller Hinton + Blood & Incubated in 5% CO2
  Zone diameters, 48 h TSB007: 14 trim
[4]; repeat
  Zone diameters, Repeat Results: 17 trim
[5]
  Zone diameters, 24 h TSB007: 7 trim
[6]; 24 h
  Zone diameters, 24 h TSB007: 10 trim
[6]; 48 h
  Zone diameters, 48 h TSB007: 9 trim
[6]; repeat
  Zone diameters, Repeat Results: 9 trim
[7]
  Zone diameters, Repeat Results: 36 trim
S. aureus NCTC 6571 [8]; 1.8 μg/ml
  effect on viability over the 4 h of the experiment: inhibitory
  viable counts at 24 h: 10^8 CFU/ml
S. aureus NCTC 6571 [8]; 3.6 μg/ml
  effect on viability over the 4 h of the experiment: inhibitory
  viable counts at 24 h: 10^3-10^6 CFU/ml
S. aureus NCTC 6571 [8]; 320 μg/ml (1.25×MBC), 15 min
  viable cells at first time point: below the limit of detection
S. aureus NCTC 6571 [8]; 320 μg/ml (1.25×MBC), first time point of 15 min
  kill: > 99.9%
[9]
  Zone diameters, Repeat Results: 26 trim
[10]
  Zone diameters, Repeat Results: 9 trim
